Our source for the EC50 values is ChEMBL document CHEMBL1156882, “5-OMe-UDP is a potent and selective P2Y(6)-receptor agonist” (J Med Chem, 2010).

Structures are written as SMILES. pEC50: −log10 of the molar value. Where only a bound is given, the exact number is not on record here.

Assay type in all cases: functional, cell-based
In assay [1] the target is T1, P2Y purinoceptor 6 (Homo sapiens, UniProt Q15077). Put plainly: Agonist activity at human P2Y6 receptor expressed in human 1321N1 cells assessed as calcium elevation by fura2/AM assay. The note with it: for pEC50: read-out: EC50; for EC50: 1321-n1.
T1 sequence (Q15077 whole entry): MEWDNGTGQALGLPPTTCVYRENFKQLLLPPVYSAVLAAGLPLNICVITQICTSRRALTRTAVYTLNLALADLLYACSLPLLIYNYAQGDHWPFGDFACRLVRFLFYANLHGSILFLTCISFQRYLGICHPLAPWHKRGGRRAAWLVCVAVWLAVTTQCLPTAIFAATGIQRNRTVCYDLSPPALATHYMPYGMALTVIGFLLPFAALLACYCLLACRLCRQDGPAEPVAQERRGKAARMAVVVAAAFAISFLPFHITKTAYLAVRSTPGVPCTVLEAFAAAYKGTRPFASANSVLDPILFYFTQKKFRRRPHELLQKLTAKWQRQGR
Assay [2] addresses T2, P2Y purinoceptor 2 (Homo sapiens, UniProt P41231). Put plainly: Agonist activity at human P2Y2 receptor expressed in human 1321N1 cells assessed as calcium elevation by fura2/AM assay. Conditions: for EC50: 1321-n1; for pEC50: read-out: EC50; call rule not given here.
The target in assay [3] is T3, P2Y purinoceptor 4 (Homo sapiens, UniProt P51582). Description: Agonist activity at human P2Y4 receptor expressed in human 1321N1 cells assessed as calcium elevation by fura2/AM assay. Conditions: for EC50: 1321-n1; for pEC50: read-out: EC50.
T3 sequence (P51582 whole entry): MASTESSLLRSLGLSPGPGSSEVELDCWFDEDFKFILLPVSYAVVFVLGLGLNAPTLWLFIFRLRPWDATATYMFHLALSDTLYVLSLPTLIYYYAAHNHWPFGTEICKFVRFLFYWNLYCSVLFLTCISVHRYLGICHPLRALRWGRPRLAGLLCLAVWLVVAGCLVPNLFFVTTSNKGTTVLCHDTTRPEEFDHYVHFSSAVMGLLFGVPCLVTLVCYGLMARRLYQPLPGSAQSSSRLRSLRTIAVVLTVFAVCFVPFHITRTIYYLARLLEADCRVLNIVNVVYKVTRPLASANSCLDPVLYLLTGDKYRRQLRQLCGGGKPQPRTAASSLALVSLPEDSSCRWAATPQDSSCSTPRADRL
Assay [4] deals with T3, P2Y purinoceptor 4. Description: Agonist activity at human P2Y4 receptor expressed in human 1321N1 cells assessed as calcium elevation at 10 uM by fura2/AM assay.
The target in assay [5] is T1, P2Y purinoceptor 6. Description: Agonist activity at human P2Y6 receptor expressed in human 1321N1 cells assessed as calcium elevation at 10 uM by fura2/AM assay.
In assay [6] the target is T3, P2Y purinoceptor 4. Description: Agonist activity at human P2Y4 receptor expressed in human 1321N1 cells assessed as concentration required to 50% maximal response of compound 3 at 10 uM by fura2/AM assay.
Assay [7] has as its target T2, P2Y purinoceptor 2. Put plainly: Agonist activity at human P2Y2 receptor expressed in human 1321N1 cells assessed as calcium elevation at 10 uM by fura2/AM assay.
The target of assay [8] is P2Y purinoceptor 2 (Mus musculus, UniProt P35383). Put plainly: Agonist activity at mouse P2Y2 receptor expressed in human 1321N1 cells assessed as calcium elevation by fura2/AM assay.
P2Y purinoceptor 2 (Mus musculus, UniProt P35383), sequence (P35383 whole entry): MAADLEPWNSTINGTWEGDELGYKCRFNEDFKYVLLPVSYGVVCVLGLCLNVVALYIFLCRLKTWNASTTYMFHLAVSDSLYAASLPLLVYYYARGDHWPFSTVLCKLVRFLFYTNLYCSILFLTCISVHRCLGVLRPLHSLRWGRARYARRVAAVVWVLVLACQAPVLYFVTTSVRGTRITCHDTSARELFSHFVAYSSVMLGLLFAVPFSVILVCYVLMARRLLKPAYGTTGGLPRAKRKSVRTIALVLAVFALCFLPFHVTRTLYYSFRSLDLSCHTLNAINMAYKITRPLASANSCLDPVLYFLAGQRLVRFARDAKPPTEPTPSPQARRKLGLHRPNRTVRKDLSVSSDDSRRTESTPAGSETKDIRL
Assay [9] deals with T1, P2Y purinoceptor 6. Description: Agonist activity at human P2Y6 receptor expressed in human 1321N1 cells assessed as concentration required to 50% maximal response of compound 3 at 10 uM by fura2/AM assay.
Assay [10] has as its target T2, P2Y purinoceptor 2. Put plainly: Agonist activity at human P2Y2 receptor expressed in human 1321N1 cells assessed as concentration required to 50% maximal response of compound 3 at 10 uM by fura2/AM assay.

For orientation: pEC50 means the negative decadic logarithm of the EC50, by convention in mol/L.

T2 sequence (P41231 whole entry): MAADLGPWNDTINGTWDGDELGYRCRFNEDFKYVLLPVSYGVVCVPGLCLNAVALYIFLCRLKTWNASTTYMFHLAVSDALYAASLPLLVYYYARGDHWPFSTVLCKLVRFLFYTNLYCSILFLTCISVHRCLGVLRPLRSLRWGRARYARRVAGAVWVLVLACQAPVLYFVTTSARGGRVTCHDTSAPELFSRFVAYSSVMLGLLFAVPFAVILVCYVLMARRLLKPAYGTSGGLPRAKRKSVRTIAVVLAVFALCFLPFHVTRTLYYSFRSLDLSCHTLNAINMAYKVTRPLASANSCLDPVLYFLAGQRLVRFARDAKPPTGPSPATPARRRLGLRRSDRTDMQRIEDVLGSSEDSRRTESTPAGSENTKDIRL

For `O=c1ccn([C@@H]2O[C@H](COP(=O)(O)OP(=O)(O)OP(=O)(O)OP(=O)(O)OC[C@H]3O[C@@H](n4ccc(=O)[nH]c4=O)[C@H](O)[C@@H]3O)C3OC(Cc4ccccc4)OC32)c(=O)[nH]1` (stereo partly drawn), the pEC50 in assay [1] is 6.85.

With `O=c1ccn([C@@H]2O[C@H](COP(=O)(O)OP(=O)(O)O)[C@@H](O)[C@H]2O)c(=O)[nH]1` [URIDINE_DIPHOSPHATE], the pEC50 in assay [1] is 6.85.

In the case of `O=c1cc(Sc2ccccc2)n([C@@H]2O[C@H](COP(=O)(O)OP(=O)(O)OP(=O)(O)O)[C@@H](O)[C@H]2O)c(=O)[nH]1`, the EC50 entry in assay [2], in assay [3] and in assay [1] was “Not Active” each time.

As to `COc1cn([C@@H]2O[C@H](COP(=O)(O)OP(=O)(O)O)[C@@H](O)[C@H]2O)c(=O)[nH]c1=O`, in [2], the EC50 entry is on record as “Not Active”. Also, the values for the negative logarithm of the EC50 (pEC50) in assay [3] and in assay [1] were no more than 4.70 and 7.10, respectively.

Regarding `Nc1ccn([C@H]2C[C@H](O)[C@@H](COP(=O)(O)OP(=O)(O)OP(=O)(O)OP(=O)(O)OC[C@H]3O[C@@H](n4ccc(=O)[nH]c4=O)[C@H](O)[C@@H]3O)O2)c(=O)n1` [DENUFOSOL], in assay [2], the negative logarithm of the EC50 (pEC50) was 6.66.

For the compound `COc1cn([C@@H]2O[C@H](COP(=O)(O)OP(=O)(O)OP(=O)(O)O)[C@@H](O)[C@H]2O)c(=O)[nH]c1=O`, the EC50 entry in assay [4] is reported as “Active”. For the same compound, the pEC50 was 5.70 in assay [2] and 6.05 in assay [1].

In the case of `O=c1[nH]c(=O)n([C@@H]2O[C@H](COP(=O)(O)OP(=O)(O)OP(=O)(O)O)[C@@H](O)[C@H]2O)cc1F`, the negative logarithm of the EC50 (pEC50) in [2] is 5.22; in assay [6], 6.22. Also, the EC50 entry in assay [5] was “Active”.

Regarding `O=c1[nH]c(=O)n([C@@H]2O[C@H](COP(=O)(O)OP(=O)(O)OP(=O)(O)O)[C@@H](O)[C@H]2O)cc1Br`, the negative-log EC50 (pEC50) is 5.69 in [2], 5.00 in [3] and 6.10 in assay [1].

Turning to `O=c1[nH]c(=O)n([C@@H]2O[C@H](COP(=O)(O)OP(=O)(O)S)[C@@H](O)[C@H]2O)cc1Br` (stereo partly drawn), the pEC50 in assay [1] was 7.33.

As for `CSc1cc(=O)[nH]c(=O)n1[C@@H]1O[C@H](COP(=O)(O)OP(=O)(O)OP(=O)(O)O)[C@@H](O)[C@H]1O`, the EC50 result in assay [3] is “Not Active”; in [1], “Not Active”; in assay [7] it was “Active”.

For `COc1cc(=O)[nH]c(=O)n1[C@@H]1O[C@H](COP(=O)(O)OP(=O)(O)OP(=O)(O)O)[C@@H](O)[C@H]1O`, the pEC50 in assay [2] is 5.52. Also, the EC50 entry in assay [3] and in [1] was “Not Active” throughout.

As to `O=c1ccn([C@@H]2O[C@H](COP(=O)(O)OP(=O)(O)OP(=O)(O)O)[C@@H](O)[C@H]2O)c(=O)[nH]1` [URIDINE TRIPHOSPHATE], the figures for the negative-log EC50 (pEC50) in [2] and in assay [3] were 7.00 and 6.30, respectively.

Regarding `O=c1ccn([C@]23C[C@H]2[C@H](COP(=O)(O)OP(=O)(O)O)[C@@H](O)[C@H]3O)c(=O)[nH]1`, in [1], the pEC50 was 6.64.

Consider `CCc1cn([C@@H]2O[C@H](COP(=O)(O)OP(=O)(O)OP(=O)(O)O)[C@@H](O)[C@H]2O)c(=O)[nH]c1=O`, for which the negative-log EC50 (pEC50) in [8] is 4.00.

For `O=c1[nH]c(=O)n([C@@H]2O[C@H](COP(=O)(O)OP(=O)(O)O)[C@@H](O)[C@H]2O)cc1F`, the negative logarithm of the EC50 (pEC50) in assay [9] was 5.00; in assay [6], 5.46; in assay [10] it was 5.70.

For the compound `O=c1[nH]c(=O)n([C@@H]2O[C@H](COP(=O)(O)OP(=O)(O)O)[C@@H](O)[C@H]2O)cc1I`, the pEC50 in assay [1] is 7.89.
